Measurements from ChEMBL document CHEMBL2069208, “Isolactarane and sterpurane sesquiterpenoids from the basidiomycete Phlebia uda” (J Nat Prod, 2012).
Active and inactive are the calls of the source. The rule behind the calls is not given here.

Tests used:
HepG2 = experiment: Growth inhibition of human HepG2 cells up to 50 ug/ml; format: functional, cell-based
Botrytis cinerea = experiment: Inhibition of spore germination of Botrytis cinerea assessed as compound concentration causing 75 to 100% germination inhibition; format: functional
Phytophthora infestans = experiment: Inhibition of spore germination of Phytophthora infestans assessed as compound concentration causing 75 to 100% germination inhibition; format: functional
Jurkat [1] = experiment: Growth inhibition of human Jurkat cells; format: functional, cell-based
Fusarium graminearum = experiment: Inhibition of spore germination of Fusarium graminearum assessed as compound concentration causing 75 to 100% germination inhibition; format: functional
Pyricularia grisea = experiment: Inhibition of spore germination of Magnaporthe grisea assessed as compound concentration causing 75 to 100% germination inhibition; format: functional
Jurkat [2] = experiment: Growth inhibition of human Jurkat cells up to 50 ug/mL; format: functional, cell-based

Row | SMILES | growth inhibition (GI) (HepG2) | INH (Botrytis cinerea) | INH (Phytophthora infestans) | IC50 (Jurkat [1]) | INH (Fusarium graminearum) | INH (Pyricularia grisea) | growth inhibition (GI) (Jurkat [2])
1 | CC1=C2C[C@@](C)(COC3OC(=O)[C@]45C[C@@H]6CC(C)(C)CC6=C(C=O)[C@]34C5)C[C@H]2C[C@]2(C)CC[C@]12O (mixture of isomers) [UDALACTARANE B] | inactive | >100 µg/mL | 10 µg/mL | 42 µM | 5 µg/mL |  | 
2 | CCC(C)CCOC1OC(=O)[C@]23C[C@@H]4CC(C)(C)CC4=C(C=O)[C@]12C3 (mixture of isomers) [UDALACTARANE A] | inactive | >100 µg/mL | 100 µg/mL | 101 µM | 10 µg/mL | 10 µg/mL | 
3 | CC1(C)CC2=C(C=O)[C@@]34C[C@]3(C[C@@H]2C1)C(=O)OC4O (stereo not given in full) |  | 50 µg/mL | 25 µg/mL |  | 10 µg/mL | 10 µg/mL | 
4 | CC1=C2C[C@@](C)(CO)C[C@H]2C[C@]2(C)CC[C@]12O | inactive |  |  |  |  |  | inactive
5 | CC1=C2C[C@@](C)(C(=O)O)C[C@H]2C[C@]2(C)CC[C@]12O | inactive |  |  | 160 µM |  |  | 
6 | Cc1cc(C2CCCCC2)n(O)c(=O)c1 [CICLOPIROX] |  | 50 µg/mL |  |  |  |  | 
